The target in assay [1] is T1, human platelet derived endothelial cell growth factor (thymidine phosphorylase) (Homo sapiens, UniProt P19971).
T1 construct: purchased Sigma
T1 sequence (P19971 11-482): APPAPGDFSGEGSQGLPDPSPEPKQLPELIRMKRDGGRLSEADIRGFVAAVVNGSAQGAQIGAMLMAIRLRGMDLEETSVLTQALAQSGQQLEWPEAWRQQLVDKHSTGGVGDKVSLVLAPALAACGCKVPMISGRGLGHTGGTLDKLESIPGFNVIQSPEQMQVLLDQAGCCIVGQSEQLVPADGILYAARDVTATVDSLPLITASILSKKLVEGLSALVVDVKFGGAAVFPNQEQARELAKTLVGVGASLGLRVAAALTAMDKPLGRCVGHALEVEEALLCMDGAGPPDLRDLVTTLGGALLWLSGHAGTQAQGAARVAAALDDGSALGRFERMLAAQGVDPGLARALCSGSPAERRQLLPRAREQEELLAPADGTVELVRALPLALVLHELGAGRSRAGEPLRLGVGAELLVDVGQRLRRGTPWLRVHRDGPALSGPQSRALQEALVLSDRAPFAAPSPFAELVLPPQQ
Briefly: Inhibitory activity to platelet derived endothelial cell growth factor (thymidine phosphorylase). It counts as biochemical. The note with it: 37° C., 90 minutes, pH 5.6, absorbance at 300 nm; from 0.1, 1, 10 and 100 μg/ml. On the procedure: (1) 100 mmol/l of thymidine (produced by Wako Pure Chemical Industries, Ltd.), 500 mmol/l of K2HPO4 (produced by Nacalai Tesque) and 0.5 mol/l of 2-morpholinoethansulfonic acid.H2O (pH 5.6; produced by Dojindo Laboratories) were prepared.
(2) The compound of the general formula (I) was dissolved in dimethylsulfoxide solution having a concentration of at most 10%, to prepare a test sample having a concentration of the compound of the general formula (I) of 1.0 mg/ml.
(3) 5 μg/ml of human platelet derived endothelial cell growth factor (produced by Sigma) was prepared. […]
(6) Absorbance of the solution for measurement was measured by using a spectrophotometer (SPECTRA max 250: produced by Molecular Devices) at a wavelength of 300 nm.
(7) Sterile water was added to 100 μl of buffer solution having 0.5 mol/l of 2-morpholinoethansulfonic acid.H2O (pH 5.6) and 20 μl of the test sample having a concentration of the compound of the general formula (I) of 1.0 mg/ml, so that the total amount was 200 μl, to prepare a solution of the compound of the general formula (I) having a final concentration of 100 μg/ml. Absorbance of a liquid having 50 μl of 2N-NaOH added to 50 μl of the solution, as a sample for measuring background, was measured at a wavelength of 300 nm. […]

Another assay has as its target aminopeptidase N (Homo sapiens, UniProt P15144). Briefly: Inhibitory effect to aminopeptidase N (L-alanine-7-amido-4-methylcoumarin substrate, MOLT-4 cells, fluorescence). Format: biochemical. Conditions: based on fluorescence intensity of the control fraction (Table 13, Test Example 9). On the procedure:
As the substrate buffer solution, 100 mM Hepes buffer solution pH 7.6 (including 120 mM sodium chloride, 5 mM potassium chloride, 1.2 mM magnesium sulfate and 0.5% bovine serum albumin) was used. After the reaction was finished, fluorescence intensity was measured by using MTP-32 Colonna microplate reader (produced by Colonna Electric) under measurement condition at an excitation wavelength of 380 nm and at an emission wavelength of 440 nm. […] The values in the Table are based on fluorescence intensity of the control fraction, and represent the enzyme-inhibitory activity as IC50 (μg/ml).

Sequence of aminopeptidase N (P15144 2-967): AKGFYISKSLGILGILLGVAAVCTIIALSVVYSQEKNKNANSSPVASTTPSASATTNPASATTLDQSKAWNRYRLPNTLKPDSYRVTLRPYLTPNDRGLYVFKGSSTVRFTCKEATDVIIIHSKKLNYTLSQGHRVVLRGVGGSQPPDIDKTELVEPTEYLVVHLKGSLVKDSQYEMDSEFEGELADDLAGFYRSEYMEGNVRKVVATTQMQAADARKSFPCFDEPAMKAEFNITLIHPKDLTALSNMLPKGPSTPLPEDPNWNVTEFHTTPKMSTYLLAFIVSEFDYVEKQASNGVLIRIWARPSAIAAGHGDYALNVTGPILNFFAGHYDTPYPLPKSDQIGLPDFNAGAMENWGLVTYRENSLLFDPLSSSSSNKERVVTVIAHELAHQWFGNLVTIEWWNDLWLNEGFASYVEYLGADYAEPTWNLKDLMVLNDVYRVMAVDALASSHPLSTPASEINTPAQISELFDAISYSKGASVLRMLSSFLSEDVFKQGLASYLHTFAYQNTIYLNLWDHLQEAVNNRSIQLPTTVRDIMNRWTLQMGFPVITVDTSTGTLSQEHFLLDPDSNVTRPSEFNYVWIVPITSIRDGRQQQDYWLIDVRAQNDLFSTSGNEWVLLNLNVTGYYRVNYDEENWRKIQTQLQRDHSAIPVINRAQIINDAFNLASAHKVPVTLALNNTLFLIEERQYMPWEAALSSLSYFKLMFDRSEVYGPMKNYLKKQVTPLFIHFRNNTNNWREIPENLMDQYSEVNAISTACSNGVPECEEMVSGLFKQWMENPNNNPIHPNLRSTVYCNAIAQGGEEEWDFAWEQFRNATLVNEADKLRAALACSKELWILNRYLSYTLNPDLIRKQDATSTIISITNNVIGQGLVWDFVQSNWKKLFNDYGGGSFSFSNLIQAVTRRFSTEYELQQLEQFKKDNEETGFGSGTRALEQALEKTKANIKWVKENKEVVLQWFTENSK

In assay [1], `Cc1cccc(C)c1N1C(=O)Cc2ccccc2C1=O` [Compound A-2, N-(2,6-dimethylphenyl)-homophthalimide] showed an IC50 of 230 µM.

As for `O=C1Cc2ccccc2C(=O)N1c1ccccc1` [Compound A-1, N-phenyl-homophthalimide], the IC50 in assay [1] is 160 µM.

For `CSc1ccccc1N1C(=O)c2cccc(O)c2C1=O` [Compound 194], at aminopeptidase N, the “Aminopeptidase N inhibiting activity IC50” value was 38 µg/mL.

By IC50 is commonly meant the concentration that inhibits the measured activity by half.

The record behind these values is US6429212B1, “Medicinal composition” (Ishihara Sangyo Kaisha Ltd., priority 1996, dated 2002).
